Test results published in paper doi:10.1101/2023.03.04.531071v1 (biorxiv, 2023).

Experiments:
[1] = target: T1, Xanthine oxidase (XO) (Bos taurus, UniProt P80457); test: uric acid formation, absorbance […] nm; assay type: biochemical
[2] = target: T1, Xanthine oxidase (XO); test: uric acid formation, Morrison fit; assay type: biochemical

T1 sequence (P80457 2-1332): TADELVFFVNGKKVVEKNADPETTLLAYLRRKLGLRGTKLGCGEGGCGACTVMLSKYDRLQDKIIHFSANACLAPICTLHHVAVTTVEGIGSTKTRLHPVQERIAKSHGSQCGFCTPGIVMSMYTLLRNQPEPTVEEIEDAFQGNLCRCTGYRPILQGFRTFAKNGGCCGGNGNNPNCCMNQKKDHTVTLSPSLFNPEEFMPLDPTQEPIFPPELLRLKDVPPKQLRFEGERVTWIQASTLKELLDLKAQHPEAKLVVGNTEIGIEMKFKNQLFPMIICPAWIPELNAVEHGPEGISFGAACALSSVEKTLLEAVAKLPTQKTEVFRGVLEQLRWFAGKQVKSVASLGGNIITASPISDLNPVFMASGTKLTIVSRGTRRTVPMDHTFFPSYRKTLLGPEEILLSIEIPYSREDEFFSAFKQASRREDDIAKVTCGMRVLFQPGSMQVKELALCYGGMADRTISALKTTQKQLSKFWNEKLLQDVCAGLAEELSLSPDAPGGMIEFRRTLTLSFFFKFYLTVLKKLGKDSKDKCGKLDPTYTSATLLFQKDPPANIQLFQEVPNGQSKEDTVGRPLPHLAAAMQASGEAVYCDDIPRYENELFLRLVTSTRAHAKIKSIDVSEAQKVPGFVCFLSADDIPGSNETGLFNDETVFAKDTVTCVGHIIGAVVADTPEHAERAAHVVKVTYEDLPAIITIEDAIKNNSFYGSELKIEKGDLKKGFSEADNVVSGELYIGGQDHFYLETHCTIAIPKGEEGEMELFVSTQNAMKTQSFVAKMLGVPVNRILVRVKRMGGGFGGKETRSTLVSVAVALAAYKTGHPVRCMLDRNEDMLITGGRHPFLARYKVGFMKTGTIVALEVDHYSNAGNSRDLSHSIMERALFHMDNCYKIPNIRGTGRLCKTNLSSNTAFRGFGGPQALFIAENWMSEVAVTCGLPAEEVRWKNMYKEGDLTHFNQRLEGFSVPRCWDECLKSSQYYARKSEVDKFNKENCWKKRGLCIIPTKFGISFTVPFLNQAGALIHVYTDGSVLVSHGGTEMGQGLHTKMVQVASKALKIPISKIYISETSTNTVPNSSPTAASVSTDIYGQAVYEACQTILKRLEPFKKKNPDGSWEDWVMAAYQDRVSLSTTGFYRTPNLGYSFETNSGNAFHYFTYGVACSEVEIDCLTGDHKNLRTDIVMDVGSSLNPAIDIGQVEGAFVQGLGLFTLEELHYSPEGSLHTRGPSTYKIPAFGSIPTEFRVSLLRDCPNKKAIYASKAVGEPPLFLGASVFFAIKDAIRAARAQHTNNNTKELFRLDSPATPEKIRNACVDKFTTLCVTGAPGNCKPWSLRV

IC50 [1] | Ki [2] | Structure (SMILES)
200.9 ± 0.04 µM | 38.7 ± 2.71 µM | Cc1cc(O)c2c(c1)C(=O)c1cccc(O)c1C2=O [Chrysophanol]
24.8 ± 0.072 µM | 2.22 ± 0.307 µM | COc1cc(C)cc2c1C(=O)c1c(O)cccc1C2=O [1-O-methyl chrysophanol]
